# Data as given in patent US9150508B2, “Sulfonamide compounds and their use in the modulation retinoid-related orphan receptor” (Glaxo Group Limited, priority 2011, dated 2015).
# How the values were obtained:
# [1] = system: IL-17A secreted from antiCD3/CD28 stimulated Peripheral Blood Mononuclear cells (PBMC); assay: Peripheral Blood Mononucleocyte Cell Assay (PBMC Assay-IL-17); assay type: cell-based; conditions: inhibition of IL-17A release, CD3/CD28 bead stimulated human PBMC, 48 hours; read-out: mean pIC50 (converted)
# From the text: Peripheral Blood Mononucleocyte Cell Assay (PBMC Assay-IL-17)
# RORs (Retinoic Acid Related Orphan Receptors) are members of the class 1 nuclear receptor family. RORs regulate gene transcription by binding to specific DNA response element (RORE) as a monomer and have critical roles of in development, immunity, circadian rhythm, and cellular metabolism (recently reviewed by A Jetten, Nuclear Receptor Signaling, 2009, 7, 1-32) One member of this nuclear receptor family, RORγt, has been identified as a regulator of differentiation and development of IL-17-expressing human and mouse CD4+ T cells, so called Th17 cells which play a role in both host defence and inflammatory disorders. RORγt is also required for transcription of the genes encoding IL-17A and IL-17F in iNKT, NKT (Immunol 2009, 2(5), 383-392, J. Immunol, 2008, 180, 51(67), 5171-5171), γδTcells (J. Resp and Crit. Care Med 2010, 182(4), 464-476), CD8^+ Tcell (J Leukocyte Biol, 2007, 82(2), 354-360) and finally CD4-CD8-TCRαβ^+ T cells (J. Immunol. 2008, 181 8761-8766). Additional immune cells such as eosinophils, neutrophils and macrophages can also be source of IL17A in some allergic inflammation related to asthma (J Allergy Clin Immunol 2001, 108, 430-438; J. Immunol, 2008, 181, 6117-6124; Immunity, 2004, 21, 467-476), however, the link with RORγt has not yet been confirmed in the literature.
# This assay is designed to measure levels of IL-17A secreted from antiCD3/CD28 stimulated frozen Peripheral Blood Mononuclear cells (PBMC) isolated from human blood with the aim of identifying inhibitors of IL-17A release.
# • 1. Ensure no external endotoxin is present in media and reagents used in the assay. • 2. The compounds for screening are dispensed into a master plate at 10 mM top concentration which are serially diluted 1:3 across 11 points in DMSO, then 500 nl is transferred into a 384-well flat-bottomed Greiner plate to which 50 ul of cell suspension is added: for the single shot screening the highest concentration of compound is 10^−5M; for 11 point full curve dose response studies the highest concentration is […]. • Controls: • As a low control, DMSO (as supplied, for example, by VWR) (final concentration 1%) in column 6 (16 points). • As a high control, 5-(4-fluorophenyl)-2-ureidothiophene-3-carboxamide (obtainable from, for example, Sigma) at a final concentration of 10^−4 M in DMSO should be used in column 18 (16 points). • If the compounds dispensed earlier than the day of the assay, they should be kept at −20° C.
# Protocol Step 2: Day 1: Thawing and Handing of PBMC • 1. Thaw PBMC in the vial using water bath (37° C.). […] Transfer the contents of the vial into 50 mL Falcon tube. • 3. Add 10 mL of Assay Media drop by drop to decrease the concentration of DMSO (as supplied, for example, by VWR) in the freezing media gradually. • 4. Spin down the cells in a centrifuge (1000 rpm-5 mins). • 5. Decant the supernatant. • 6. Re-suspend the cells in 10 mL of Assay Media. • 7. Transfer of 0.1 mL of suspension into Cedex counting tube. • 8. Add 0.9 mL of media to achieve volume of the suspension for counting up to 1 mL. Count the cells on Cedex using 1:10 dilution factor settings. • 9. Make the cell suspension at the concentration 8×10^5 cells/mL. to give a final number of 40,000 cells/well. Protocol Step 3: Day 1: Stimulation of PBMC with CD3/CD28 beads • 1. Add well mixed CD3/CD28 Dynabeads (as supplied, for example, by Dynal) to achieve ratio bead:cell=2:1 (i.e a dilution of 1 in 20). Mix thoroughly. • 2. Dispense the suspension into the 384 Assay Plates using Multidrop (50 ul per well). • If the volume of cell suspension is large, mix the suspension after dispensing into every other plate. • 3. Cover the plates with the lids and place them to the humidified incubator (37° C., 5% CO2) for 48 hours. Protocol Step 4: Day 2: MSD plates preparation • 1. […]
# [2] = biological target: T1, Human RORγ Ligand Binding Domain (RORγ-LBD) (Homo sapiens, UniProt P51449); assay: Dual Fluorescence Energy Transfer (FRET) assay: RORγ-LBD / SRC1(2) co-activator peptide interaction; assay type: biochemical; conditions: RORγ-LBD/SRC1(2) peptide interaction, read-out: mean pIC50 (converted)
# T1 construct: His6 plus thrombin site) (N); made in house; host or cells: E. coli BL21(DE3), modified pET21a
# T1 sequence (P51449 263-518): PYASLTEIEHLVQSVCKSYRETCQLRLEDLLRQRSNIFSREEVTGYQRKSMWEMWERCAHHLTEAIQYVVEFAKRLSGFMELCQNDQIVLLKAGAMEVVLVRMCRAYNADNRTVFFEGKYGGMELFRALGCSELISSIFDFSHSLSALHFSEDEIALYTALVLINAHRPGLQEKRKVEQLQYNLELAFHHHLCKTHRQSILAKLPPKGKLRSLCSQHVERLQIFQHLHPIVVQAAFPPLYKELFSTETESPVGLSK
# From the text: Dual Fluorescence Energy Transfer (FRET) Assay
# This assay is based on the knowledge that nuclear receptors interact with cofactors (transcription factors) in a ligand dependent manner. RORγ is a typical nuclear receptor in that it has an AF2 domain in the ligand binding domain (LBD) which interacts with co-activators. The sites of interaction have been mapped to the LXXLL (SEQ ID NO:1) motifs in the co-activator SRC1(2) sequences. Short peptide sequences containing the LXXLL (SEQ ID NO:1) motif mimic the behavior of full-length co-activator.
# This assay measures ligand-mediated interaction of the co-activator peptide with the purified bacterial-expressed RORγ ligand binding domain (RORγ-LBD) to indirectly assess ligand binding. RORγ has a basal level of interaction with the co-activator SRC1(2) in the absence of ligand, Thus, it is possible to find ligands that inhibit or enhance the RORγ/SRC1(2) interaction.
# Human RORγ Ligand Binding Domain (RORγ-LBD) was expressed in E. coli strain BL21(DE3) as an amino-terminal polyhistidine tagged fusion protein. DNA encoding this recombinant protein was sub-cloned into a modified pET21a expression vector (Novagen). A modified polyhistidine tag (MKKHHHHHHLVPRGS) (SEQ ID NO:2)was fused in frame to residues 263-518 of the human RORγ sequence.
# Approximately 50 g E. coli cell pellet was resuspended in 300 mL of lysis buffer (30 mM imidazole pH 7.0 and 150 mM NaCl). Cells were lysed by sonication and cell debris was removed by centrifugation for 30 minutes at 20,000 g at 4° C. The cleared supernatant was filtered through a 0.45 uM cellulose acetate membrane filter. The clarified lysate was loaded onto a column (XK-26) packed with ProBond Nickel Chelating resin (InVitrogen), pre-equilibrated with 30 mM imidazole pH 7.0 and 150 mM NaCl. After washing to baseline absorbance with the equilibration buffer, the column was developed with a gradient from 30 to 500 mM imidazole pH 7.0. Column fractions containing the RORγ-LBD protein were pooled and concentrated to a volume of 5 mLs. The concentrated protein was loaded onto a Superdex 200 column pre-equilibrated with 20 mM Tris-Cl pH 7.2 and 200 mM NaCl. The fractions containing the desired RORγ-LBD protein were pooled together.
# Purified RORγ-LBD was buffer exchanged by exhaustive dialysis [3 changes of at least 20 volumes (>8000×)] against PBS [100 mM NaPhosphate, pH 8 and 150 mM NaCl]. The concentration of RORγ-LBD was approximately 30 uM in PBS. Five-fold molar excess of NHS-LC-Biotin (Pierce) was added in a minimal volume of PBS. This solution was incubated with occasional gentle mixing for 60 minutes at ambient room temperature. The modified RORγ-LBD was dialyzed against 2 buffer changes—TBS pH 8.0 containing 5 mM DTT, 2 mM EDTA and 2% sucrose—each at least 20 times of the volume. The modified protein was distributed into aliquots, frozen on dry ice and stored at −80° C. The biotinylated RORγ-LBD was subjected to mass spectrometric analysis to reveal the extent of modification by the biotinylation reagent. In general, approximately 95% of the protein had at least a single site of biotinylation and the overall extent of biotinylation followed a normal distribution of multiple sites ranged from one to five.
# A biotinylated peptide corresponding to amino acid 676 to 700 ([…]) (SEQ ID NO:3)of the co-activator steroid receptor coactivator SRC1(2) was generated using similar method.
# Biotinylated SRC1(2) solution was prepared by adding an appropriate amount of biotinylated SRC1(2) from the 100 uM stock solution to a buffer containing 10 mM of freshly added DTT from solid to give a final concentration of 40 nM. An appropriate amount of Europium labeled Streptavidin was then added to the biotinylated SRC1(2) solution in a tube to give a final concentration of 10 nM. The tube was inverted gently and incubated for 15 minutes at room temperature. […]
IC50 [2],SMILES,IC50 [1]
–,CCCCc1ccc(N(CC(C)C)S(=O)(=O)c2ccc(OCc3c(C)noc3C)cc2)c(C)c1 [Product P23],≤ 1000 nM
≤ 15.8 nM,Cc1ccc(N(CC(C)C)S(=O)(=O)c2ccc(OCc3c(C)noc3C)cc2)c(C)c1 [Product P24],≤ 1000 nM
≤ 15.8 nM,Cc1noc(C)c1COc1ccc(S(=O)(=O)N(CC(C)C)c2ccc(C(C)C)cc2)cc1 [Product P28],≤ 1000 nM
≤ 15.8 nM,Cc1noc(C)c1COc1ccc(S(=O)(=O)N(CC(C)C)c2ccc(Cl)cc2)cc1 [Product P30],≤ 1000 nM
≤ 15.8 nM,CCCc1ccc(N(CC(C)C)S(=O)(=O)c2ccc(OCc3c(C)noc3C)cc2)cc1 [Product P31],≤ 1000 nM
≤ 15.8 nM,Cc1ccc(C(F)(F)F)cc1N(CC(C)C)S(=O)(=O)c1ccc(OCc2c(C)noc2C)cc1 [Product P33],≤ 1000 nM
–,Cc1ccc(C)c(N(CC(C)C)S(=O)(=O)c2ccc(OCc3c(C)noc3C)cc2)c1 [Product P37],≤ 1000 nM
≤ 15.8 nM,Cc1ccc(N(CC(C)C)S(=O)(=O)c2ccc(OCc3ccncc3)cc2)c(C)c1 [Product P98],–
≤ 15.8 nM,Cc1ccc(F)cc1N(CC(C)C)S(=O)(=O)c1ccc(OCc2ccncc2)cc1 [Product P104],–
≤ 15.8 nM,Cc1noc(C)c1COc1ccc(S(=O)(=O)N(CC(C)C)c2ccc(Cl)c(Cl)c2)cc1 [Product P114],–
–,Cc1cc(C)cc(N(CC(C)C)S(=O)(=O)c2ccc(OCc3c(C)noc3C)cc2)c1 [Product P118],≤ 1000 nM
–,Cc1ccc(N(CC(C)C)S(=O)(=O)c2ccc(OCc3ccncc3)cc2)c(C)c1 [Product P123],≤ 1000 nM
–,Cc1ccc(N(CC(C)C)S(=O)(=O)c2ccc(COCc3ccncc3)cc2)c(C)c1 [Product P128],≤ 1000 nM
–,Cc1ccc(N(CC(C)C)S(=O)(=O)c2ccc(OCc3ncn(C)n3)cc2)c(C)c1 [Product P132],≤ 1000 nM
–,Cc1ccccc1N(CC(C)C)S(=O)(=O)c1ccc(OCc2c(C)noc2C)cc1 [Product P137],≤ 1000 nM
≤ 15.8 nM,Cc1ccc(N(CC(C)C)S(=O)(=O)c2ccc(CCc3ccncc3)cc2)c(C)c1 [Product P140],≤ 1000 nM
≤ 15.8 nM,Cc1ccc(N(CC(C)C)S(=O)(=O)c2ccc(OCCc3ccncc3)cc2)c(C)c1 [Product P141],–
≤ 15.8 nM,Cc1ccc(N(CC(C)C)S(=O)(=O)c2ccc(OCCc3c(C)noc3C)cc2)c(C)c1 [Product P142],–
–,Cc1ccc(N(CC(C)C)S(=O)(=O)c2ccc(OCc3ccncn3)cc2)c(C)c1 [Product P143],≤ 1000 nM
–,Cc1cc(Br)ccc1N(CC(C)C)S(=O)(=O)c1ccc(OCc2c(C)noc2C)cc1 [Product P144],≤ 1000 nM
–,Cc1ccc(N(CC(C)C)S(=O)(=O)c2ccc(OCc3ncnn3C)cc2)c(C)c1 [Product P147],≤ 1000 nM
≤ 15.8 nM,"Cc1ccc(N(CC(C)C)S(=O)(=O)c2ccc(OCC(O)c3ccncc3)cc2)c(C)c1 (centres unmarked) [Product P150, N-(2,4-dimethylphenyl)-4-(2-hydroxy-2-(pyridin-4-yl)ethoxy)-N-isobutylbenzenesulfonamide]",–
–,"Cc1cc(C(C)(C)O)ccc1N(CC(C)C)S(=O)(=O)c1ccc(OCc2c(C)noc2C)cc1 [Product P155, 4-((3,5-dimethylisoxazol-4-yl)methoxy)-N-(4-(2-hydroxypropan-2-yl)-2-methylphenyl)-N-isobutylbenzenesulfonamide]",≤ 1000 nM
≤ 15.8 nM,"CCc1ccc(N(CC(C)C)S(=O)(=O)c2ccc(OCc3c(C)noc3C)cc2)cc1 [Product P160, 4-((3,5-dimethylisoxazol-4-yl)methoxy)-N-(4-ethylphenyl)-N-isobutylbenzenesulfonamide]",≤ 1000 nM
–,"Cc1ccc(N(CC(C)C)S(=O)(=O)c2ccc(C(=O)O)cc2)c(C)c1 [Product P179, 4-(N-(2,4-dimethylphenyl)-N-isobutylsulfamoyl)benzoic acid]",> 100000 nM
